Results from patent US8304422B2, “Compositions and methods for inhibition of the JAK pathway” (Rigel Pharmaceuticals, Inc., priority 2007, dated 2012).

These compounds were tested on BaF3 V617F cells; UKE-1 (assay: Proliferation Assay (Cell Titer-Glo; Example 7)). Settings: proliferation 72 hours, inhibit JAK2 activity, cell line (BaF3 V617F or UKE-1) not stated.
Format: cell-based
In short: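 BaF3 V617F cells (RPMI, 10% FBS) and UKE-1 cells (Iscove's DMEM, 10% FBS, 10% equine serum, 1 uM hydrocortisone) were exposed to 3-fold serially diluted compound in duplicate for 72 hours at 37 °C. Viable cell number quantified by Cell Titer-Glo luminescence; IC50 reported.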
In the case of `Cc1cnc(Nc2cc(C)c(OC(C)C)c(C)c2)nc1Nc1ccc(CNS(=O)(=O)C2CC2)cc1` [II-219, 5-Methyl-N4-[4-(N-cyclopropylsulfonylamino)methylphenyl]-N2-[3,5-dimethyl-4-(2-propoxy)phenyl]-2,4-pyrimidinediamine], the IC50 is reported as 114 nM.
Work on `Cc1cnc(Nc2cc(C)c(C)c(C)c2)nc1Nc1ccc2c(c1)S(=O)(=O)NCC2` [VII-8, 5-Methyl-N4-[3,4-dihydro-1,1-dioxide-2H-1,2-benzothiazin-7-yl]-N2-[3,4,5-trimethylphenyl]-2,4-pyrimidinediamine] yielded an IC50 of 1610 nM.
Compound `Cc1cc(Nc2ncc(C)c(Nc3ccc(CNS(=O)(=O)NC4CC4)cc3)n2)ccc1N1CCN(C)CC1` [II-172, N4-[4-((N-Cyclopropylamino)sulfonylamino)methylphenyl]-5-methyl-N2-[3-methyl-4-(4-methyl-1-piperazinyl)phenyl]-2,4-pyrimidinediamine] has an IC50 of 2260 nM.
With `Cc1cc(N2CCN(C)CC2)ccc1Nc1ncc(C)c(Nc2ccc(CCNS(=O)(=O)C3CC3)cc2)n1` [II-68] the IC50 was 4140 nM.
Work on `CC1CN(CCOc2ccc(Nc3ncc(Cl)c(Nc4ccc(CCNS(=O)(=O)C5CC5)cc4)n3)cc2)CC(C)O1` (stereo not drawn) [II-49] yielded an IC50 of 339 nM.
Work on `CCc1cnc(Nc2ccc(C3CCN(C)CC3)cc2)nc1Nc1ccc(CNS(=O)(=O)C2CC2)cc1` [II-88, N4-[4-(N-Cyclopropylsulfonylamino)methylphenyl]-5-ethyl-N2-[4-(1-methyl-4-piperidinyl)pheny]-2,4-pyrimidinediamine] yielded an IC50 of 833 nM.
With `CCNS(=O)(=O)NCc1cccc(Nc2nc(Nc3cc(C)c(OCC)c(C)c3)ncc2Cl)c1` [II-130, 5-Chloro-N2-(3,5-dimethyl-4-ethoxyphenyl)-N4-[(3-(ethylamino)sulfonylamino)methylphenyl]-2,4-pyrimidinediamine] the IC50 was 140 nM.
Work on “5-Chloro-N4-[4-(N-cyclopropylsulfonylamino)methylphenyl]-N2-[3,4-dimethyl-4-(2-(4-morpholinyl)ethoxy)phenyl]-2,4-pyrimidinediamine [II-160]” yielded an IC50 of 29.9 nM.
With `CCS(=O)(=O)N1CCc2c(cccc2Nc2nc(Nc3cc(OC)c(OC)c(OC)c3)ncc2Cl)C1` [VI-5, 5-Chloro-N4-[1,2,3,4-tetrahydro-2-(ethylsulfonyl)-5-isoquinolinyl]-N2-(3,4,5-trimethoxyphenyl)-2,4-pyrimidinediamine] the IC50 was 798 nM.
Compound `CCOc1cc(Nc2ncc(Cl)c(Nc3ccc(CNS(=O)(=O)C4CC4)cc3)n2)cc(OC)c1OC` [II-210, 5-Chloro-N4-[4-(N-cyclopropylsulfonylamino)methylphenyl]-N2-[3,4-dimethoxy-5-ethoxyphenyl]-2,4-pyrimidinediamine] has an IC50 of 167 nM.
`COc1c(C)cc(Nc2ncc(C)c(Nc3ccc4c(c3)CCN(S(=O)(=O)C3CC3)C4)n2)cc1C` [VIII-9, N4-[(N-cyclopropylsulfonyl)-1,2,3,4-tetrahydroisoquinolin-6-yl]-N2-(3,5-dimethyl-4-methoxy)phenyl-5-methyl-2,4-pyrimidinediamine] showed an IC50 of 179 nM.
Work on `CCOc1cc(Nc2ncc(C)c(Nc3ccc(CNS(=O)(=O)C4CC4)cc3)n2)cc(OC)c1OC` [II-209, 5-Methyl-N4-[4-(N-cyclopropylsulfonylamino)methylphenyl]-N2-[3,4-dimethoxy-5-ethoxyphenyl]-2,4-pyrimidinediamine] yielded an IC50 of 317 nM.
Compound “5-Chloro-N4-[4-(N-Cyclopropylsulfonylamino)methylphenyl]-N2-[3-methyl-4-[(1S,4S)-5-methyl-2,5-diazabicyclo[2.2.1]hept-2-yl]phenyl]-2,4-pyrimidinediamine [II-185]” has an IC50 of 110 nM.
Work on `Cc1cnc(Nc2ccc(S(=O)(=O)C(F)(F)F)cc2)nc1Nc1ccc(CCNS(=O)(=O)C2CC2)cc1` [II-59] yielded an IC50 of 3140 nM.
In the case of `Cc1cc(Nc2ncc(Cl)c(Nc3ccc(CNS(N)(=O)=O)cc3)n2)ccc1N1CCN(C)CC1` [II-149, N4-[4-(Aminosulfonylamino)methylphenyl]-5-chloro-N2-[3-methyl-4-(4-methyl-1-piperazinyl)phenyl]-2,4-pyrimidinediamine], the IC50 is reported as 1040 nM.
`COc1cc(Nc2ncc(C)c(Nc3ccc4c(c3)[C@H](NS(C)(=O)=O)CC4)n2)cc(OC)c1OC` [V-9] was tested, and the IC50 was 2200 nM.
`CS(=O)(=O)N1CCN(c2ccc(Nc3ncc(Cl)c(Nc4ccc(CCNS(=O)(=O)C5CC5)cc4)n3)c(C(F)(F)F)c2)CC1` [II-55, 5-Chloro-N4[4-(N-cyclopropylsulfonylamino)ethylphenyl]-N2-[4-(4-methylsulfonylpiperazino)-2-trifluoromethylphenyl]-2,4-pyrimidinediamine] was tested, and the IC50 was 8880 nM.
Compound `COc1c(C)cc(Nc2ncc(Cl)c(Nc3ccc(CNS(=O)(=O)C4CC4)cc3)n2)cc1Cl` [II-80, 5-Chloro-N2-(3-chloro-4-methoxy-5-methylphenyl]-N4-[4-(N-cyclopropylsulfonylamino)methylphenyl]-2,4-pyrimidinediamine] has an IC50 of 188 nM.
`Cc1cc(Nc2ncc(Cl)c(Nc3ccc4c(c3)S(=O)(=O)NCC4)n2)cc(C)c1C` [VII-9, 5-Chloro-N4-[3,4-dihydro-1,1-dioxide-2H-1,2-benzothiazin-7-yl]-N2-[3,4,5-trimethylphenyl]-2,4-pyrimidinediamine] was tested, and the IC50 was 1340 nM.
`Cc1cc(N2CCN(C)CC2)ccc1Nc1ncc(Cl)c(Nc2ccc(CCNS(=O)(=O)C3CC3)cc2)n1` [II-52, 5-Chloro-N4[4-(N-cyclopropylsulfonylamino)ethylphenyl]-N2-[4-(4-methylpiperazino)-2-methylphenyl]-2,4-pyrimidinediamine] was tested, and the IC50 was 6120 nM.
In the case of `CCNS(=O)(=O)NCc1ccc(Nc2nc(Nc3cc(C)c(OC)c(OC)c3)ncc2Cl)cc1` [II-109, 5-Chloro-4-[(4-(ethylamino)sulfonylamino)methylphenyl]-N2-(3,4-dimethoxy-5-methylphenyl)-2,4-pyrimidinediamine], the IC50 is reported as 151 nM.
For `CCNS(=O)(=O)NCc1cccc(Nc2nc(Nc3cc(C)c(OC)c(C)c3)ncc2Cl)c1` [II-129, 5-Chloro-N2-(3,5-dimethyl-4-methoxyphenyl)-N4-[(3-(ethylamino)sulfonylamino)methylphenyl]-2,4-pyrimidinediamine], the IC50 was 127 nM.
For “5-Chloro-N4-[(4-(dimethylamino)sulfonylamino)methylphenyl]-N2-[3,4,5-trimethoxyphenyl)-2,4-pyrimidinediamine [II-95]”, the IC50 was 250 nM.
In the case of `Cc1cc(CNS(=O)(=O)C2CC2)cc(Nc2nc(Nc3ccc(N4CCN(C5CC6CCC5C6)CC4)cc3)ncc2Cl)c1` (stereo not drawn) [II-76, N-(3-(2-(4-(4-(bicyclo[2.2.1]heptan-2-yl)piperazin-1-yl)phenylamino)-5-chloropyrimidin-4-ylamino)-5-methylbenzyl)cyclopropanesulfonamide], the IC50 is reported as 1310 nM.
Compound “5-Chloro-N2-[3-methyl-4-(methyl-1-piperazinyl)phenyl]-N4-[1,2,3,4-tetrahydro-2-(ethylsulfonyl)-5-isoquinolinyl]-2,4-pyrimidinediamine [VI-2]” has an IC50 of 2800 nM.
Compound `COc1c(C)cc(Nc2ncc(Cl)c(Nc3ccc(CNS(=O)(=O)C4CC4)cc3C)n2)cc1C` [II-150, 5-Chloro-N2-(3,5-dimethyl-4-methoxyphenyl)-N4-[2-methyl-4-(N-cyclopropylsulfonylamino)methylphenyl]-2,4-pyrimidinediamine] has an IC50 of 307 nM.
With `COc1c(C)cc(Nc2ncc(C)c(Nc3ccc4c(c3)[C@H](NS(C)(=O)=O)CC4)n2)cc1C` [V-10] the IC50 was 673 nM.
